Laboratory results published in patent publication US9119881B2, “Method of synergistically enhancing the therapeutic efficacy and safety of medication through a combination therapy” (priority 2010, dated 2015).
Marks after values point to notes of the source that are not given here. Where no end group is shown, it is not given here. The star is where a group is joined. Myristoyl = CCCCCCCCCCCCCC(=O)*

Tests used:
PPAR γ = molecular target: T1, PPAR γ (Mus musculus, UniProt P37238); experiment: PPAR γ reporter activity assay in 3T3-L1 preadipocytes; format: cell-based; details: 6 hrs, 2′5′-dideoxyadenosine 10 μM, PKAi 30 μM; for ABA-induced PPAR γ activation, effect of inhibitor: ABA 10 μM; for Ros-induced PPAR γ activation, effect of inhibitor: Ros 1 μM
T1 construct: expressed in transfected cells; host or cells: 3T3-L1 pre-adipocytes
T1 sequence (P37238 31-505 limits assumed): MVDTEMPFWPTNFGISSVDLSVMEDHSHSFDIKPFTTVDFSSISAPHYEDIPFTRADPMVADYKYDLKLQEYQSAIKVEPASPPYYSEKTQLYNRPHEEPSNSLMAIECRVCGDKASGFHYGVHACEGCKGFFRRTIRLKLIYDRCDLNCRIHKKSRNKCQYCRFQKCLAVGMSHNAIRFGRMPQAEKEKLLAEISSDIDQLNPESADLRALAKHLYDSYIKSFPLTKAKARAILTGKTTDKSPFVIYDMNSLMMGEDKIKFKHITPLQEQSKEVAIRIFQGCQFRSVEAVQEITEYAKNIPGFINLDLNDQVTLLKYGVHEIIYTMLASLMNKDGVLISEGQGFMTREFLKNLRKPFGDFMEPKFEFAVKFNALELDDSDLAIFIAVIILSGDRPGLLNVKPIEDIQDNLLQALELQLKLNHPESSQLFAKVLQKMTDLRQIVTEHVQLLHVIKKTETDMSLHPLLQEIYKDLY
Description: For 3T3-L1 preadipocytes cells were treated for 6-h with vehicle (DMSO) or Ros (1 μM) with ABA (10 μM), the cAMP-inhibitor 2′5′ dideoxyadenosine (dideoxy, 10 μM), or 14-22 myristolated PKA inhibitor fragment (PKAi, 30 μM). […] Luciferase activity was normalized to pRL activity in the cell extracts and relative luciferase activity was calculated a ratio of the activity in the treatment wells to control wells. Data are represented as mean±standard error.
A pCMX.PPAR γ expression plasmid and a pTKPPRE3x luciferase reporter plasmid driven by the PPRE-containing Acyl-CoA oxidase promoter (kindly provided by Dr. R M. Evans, The Salk Institute, San Diego, Calif.) were purified using Qiagen's Maxi kit (Valencia, Calif.). […] Cells were co-transfected in the […] with 1.5 μg plasmid DNA and 25 ng of pRL reporter control using F-2 transfection reagents (Targeting Systems, Santee, Calif.) according to the manufacturer's protocol. […] Cells were then treated in replicates of 8 with vehicle (DMSO), rosiglitazone (1 or 10 μM; Cayman Chemicals, Arm Arbor, Mich.), or ABA (10 μM; Sigma) with and without 2′5′ dideoxyadenosine (10 μM; Sigma) and 14-22 myristolated PKA inhibitor fragment (PKAi, 30 μM; Sigma). […] Luciferase activity, normalized to pRL activity in the cell extracts was determined by using the Dual Luciferase II reporter assay system (Promega, Madison, Wis.) using a Modulus 96-well luminometer (Turner Biosystems, Sunnyvale, Calif.). All values were normalized to control wells to calculate relative luciferase activity.

[1] = as stated in U.S. Pat. No. 6,515,132; cited from earlier work
[2] = Dietary ABA and rosiglitazone in obese db/db mice: body and organ weights; format: in vivo; details: for Final body weight / Ab. WAT % Body Weight / Liver % Body Weight / Sc. WAT % Body Weight: with or without ABA 100 mg/kg diet; for Final body weight: 60 days
Description: Twelve-fifteen week-old BKS.Cg-+Lepr^db/+Lepr^db/OlaHsd (db/db) mice were housed at the animal facilities at Virginia Polytechnic Institute and State University in a room maintained at 75° F., with a 12:12 h light-dark cycle starting from 6:00 AM. All experimental procedures were approved by the Institutional Animal Care and Use Committee of Virginia Polytechnic Institute and State University and met or exceeded requirements of the Public Health Service, National Institutes of Health and the Animal Welfare Act. […] Louis, Mo.) for 60 days. Mice were weighed and fasting (12 h) blood glucose levels were taken weekly. Blood glucose levels were assessed with an ACCU-CHEK® Glucometer (Roche, Indianapolis, Ind.). […] On day 60 mice were sacrificed by CO2 narcosis with secondary thoracotomy. Abdominal WAT, inguinal subcutaneous WAT, and liver were then excised and weighed. Abdominal and subcutaneous WAT were then digested and fractionated.

[3] = db/db mice, Roshi diet (70 mg/kg diet), day 60
[4] = db/db mice, Roslo diet (10 mg/kg diet), day 60

**Q.** For `C[C@H]1O[C@@H](n2cnc3c(N)ncnc32)C[C@@H]1O` [2′5′-dideoxyadenosine], which “ABA-induced PPAR γ activation, effect of inhibitor” value (PPAR γ) is on record?
**A.** The value was “prevented”.

**Q.** And the “Ros-induced PPAR γ activation, effect of inhibitor” value (PPAR γ)?
**A.** Its value is “no effect”.

**Q.** For `O=C1NC(=O)C(Cc2ccc3c(c2)CC[C@H](Cc2ccccc2)O3)S1` (stereo partly shown) [Englitazone], which “current minimum effective drug dose” value [1] is on record?
**A.** Its value is 200 μmol/kg diet.

**Q.** For `CN(CCOc1ccc(CC2SC(=O)NC2=O)cc1)c1ccccn1` (stereo not shown) [rosiglitazone], which “edema in the interscapular region” value ([2]; db/db mice fed Ros^hi (70 mg/kg diet)) is on record?
**A.** Its value is “significant edema”.

**Q.** And the Final body weight ([2]; db/db mice, Roshi diet (70 mg/kg diet))?
**A.** The Final body weight was 64.4 ± 2.4^d g.

**Q.** What about the “Ab. WAT % Body Weight” value [2, 3] of the same compound?
**A.** The value was 4.6 ± 0.61^a % Body Weight.

**Q.** What about the “Liver % Body Weight” value [2, 3] of the same compound?
**A.** Its value is 6.7 ± 2.3^a % Body Weight.

**Q.** And the “Sc. WAT % Body Weight” value [2, 3]?
**A.** Its value is 3.2 ± 0.43 % Body Weight.

**Q.** And the Final body weight ([2]; db/db mice, Roslo diet (10 mg/kg diet))?
**A.** Its Final body weight is 56.4 ± 2.4^bc g.

**Q.** What about the “Ab. WAT % Body Weight” value [2, 4] of the same compound?
**A.** The value was 6.7 ± 0.61^bc % Body Weight.

**Q.** And the “Liver % Body Weight” value [2, 4]?
**A.** The value was 9.2 ± 0.51^b % Body Weight.

**Q.** And the “Sc. WAT % Body Weight” value [2, 4]?
**A.** The value was 2.4 ± 0.43 % Body Weight.

**Q.** What about the “liver weights (in words)” value ([2]; db/db mice, day 60, low dose Ros, ABA 100 mg/kg diet) of the same compound?
**A.** The value was “significantly increased”.

**Q.** And the “body weights of the mice (in words)” value ([2]; db/db mice, both low- and high-dose rosiglitazone, 60-day dietary intervention)?
**A.** The value was “significantly increased”.

**Q.** Which results are given for “PKAi: 14-22 myristoylated PKA inhibitor fragment (Myristoyl-SGRTGRRNA; UniProt P61925 14-22, looked up, fragment)”?
**A.** ABA-induced PPAR γ activation, effect of inhibitor (PPAR γ): prevented; Ros-induced PPAR γ activation, effect of inhibitor (PPAR γ): no effect
